Test system: SVV mutant 2
Settings: decreasing amounts of TMP, FIG. 6
Source text: Replication of mutant 2 was monitored by GFP expression (FIG. 5). […] GFP expression was monitored using an inverted microscope.

## COc1cc(Cc2cnc(N)nc2N)cc(OC)c1OC [TMP, trimethoprim]
  lowest amount of TMP that can be used with SVV mutant 2: 0.05 µM
